Assay results: article PMC8141582, “Synergistic Effect of Statins and Abiraterone Acetate on the Growth Inhibition of Neuroblastoma via Targeting Androgen Receptor” (Frontiers in Oncology, 2021)
Where two headings read alike, the source gives them in different places.

How the values were obtained:
N2a cells = experiment: MTT cell viability assay, N2a; type: cell-based, mouse; conditions: Mus musculus
Protocol: (§1) N2a, SH-SY5Y, SK-N-BE (2), 10A, HUVEC, HL7702 cells were plated in 96-well plates at 8,000 cells/well, respectively, in complete media in triplicate wells for each dose and cultured for 18 h. The neuroblastoma cell lines, N2a, SH-SY5Y, and SK-N-BE (2), and non-cancer cell lines, 10A, HUVEC, and HL7702, were treated with simvastatin and fluvastatin in a range of doses from 0 to 20 μM and with AA from 0 to 30 μM; N2a, SH-SY5Y SK-N-BE (2), were treated with rosuvastatin in a range of doses from 0 to 100 μM for 72 h. Statins dissolved in DMSO and AA dissolved in ethanol. After 72 h treatment, the medium was added 0.5 mg/ml MTT reagent and incubated at 37°C for 4 h. Subsequently, the supernatant was aspirated, and cells were lysed in 150 µl DMSO, then shaken 10 min at 37°C. The optical density (OD) was measured at 570 and 630 nm using a plate reader.

LAPC-4 cells = test system: LAPC-4 cells; set-up: method as in Supplement [16]; key: Positive: Simvastatin alone inhibited the progression of cancer; Negative: Simvastatin alone could not inhibit the progression of cancer; conditions: Prostate Cancer, 11.0 mg/kg/day, s.c.; ref Supplement [16]; cited from earlier work
MDA-MB-231 cells = test system: MDA-MB-231 cells; set-up: key: Positive: Simvastatin alone inhibited the progression of cancer; Negative: Simvastatin alone could not inhibit the progression of cancer; conditions: Breast Cancer, cited from earlier work
HUVEC cells = experiment: MTT cell viability assay, HUVEC; type: cell-based; conditions: Homo sapiens, normal cell line, 72 h
Protocol: (§2) Statins dissolved in DMSO and AA dissolved in ethanol. After 72 h treatment, the medium was added 0.5 mg/ml MTT reagent and incubated at 37°C for 4 h. Subsequently, the supernatant was aspirated, and cells were lysed in 150 µl DMSO, then shaken 10 min at 37°C. The optical density (OD) was measured at 570 and 630 nm using a plate reader.

A498 cells = test system: A498 cells; set-up: method as in Supplement [14]; key: Positive: Simvastatin alone inhibited the progression of cancer; Negative: Simvastatin alone could not inhibit the progression of cancer; conditions: Renal Cancer, 5.0 mg/kg/day, oral; ref Supplement [14]; cited from earlier work
U87MG = test system: U87MG; set-up: method as in Supplement [1]; key: Positive: Simvastatin alone inhibited the progression of cancer; Negative: Simvastatin alone could not inhibit the progression of cancer; conditions: Glioma, 2.5 mg/kg/day, s.c.; ref Supplement [1]; cited from earlier work
[1] = test system: HLMC cells from the primary patients; set-up: method as in Supplement [4]; key: Positive: Simvastatin alone inhibited the progression of cancer; Negative: Simvastatin alone could not inhibit the progression of cancer; conditions: Lung Carcinoma, 50.0 mg/kg/day, oral; ref Supplement [4]; cited from earlier work
CAPAN-2 cells = test system: CAPAN-2 cells; set-up: method as in Supplement [8]; key: Positive: Simvastatin alone inhibited the progression of cancer; Negative: Simvastatin alone could not inhibit the progression of cancer; conditions: Pancreatic Cancer, 0.5 mg/kg/day, oral; ref Supplement [8]; cited from earlier work
GL-26 cells = test system: GL-26 cells; set-up: method as in Supplement [2]; key: Positive: Simvastatin alone inhibited the progression of cancer; Negative: Simvastatin alone could not inhibit the progression of cancer; conditions: Human glioblastoma multiforme, 1.0 mg/kg/day or 10.0 mg/kg/day, oral; ref Supplement [2]; cited from earlier work
KHOS or NP cells = test system: KHOS or NP cells; set-up: method as in Supplement [24]; key: Positive: Simvastatin alone inhibited the progression of cancer; Negative: Simvastatin alone could not inhibit the progression of cancer; conditions: Osteosarcoma, 10.0 mg/kg, route unknown; ref Supplement [24]; cited from earlier work
Caki-1-staR cells = test system: Caki-1-staR cells; set-up: method as in Supplement [13]; key: Positive: Simvastatin alone inhibited the progression of cancer; Negative: Simvastatin alone could not inhibit the progression of cancer; conditions: Renal Cancer, 6.7 mg/kg/day, i.p.; ref Supplement [13]; cited from earlier work
SH-SY5Y xenografts = experiment: SH-SY5Y tumor xenograft study; type: in vivo, BALB/c nude mice; conditions: Sim 20 mg/kg, oral daily
From the text: Four weeks old BALB/c nude mice of both sexes were purchased from Vital River Laboratory Animal Technology Co., Ltd. (Beijing, China) and maintained under specific pathogen-free conditions. Male mice were castrated 5 days before cell inoculation. […] Then, all the mice were divided randomly into four groups: control group (Placebo, n = 7), simvastatin group (Sim, n = 6), abiraterone acetate group (AA, n = 6), and combination group (Com, n = 6) including three male mice in each group. […] AA 150 mg/kg/day; combined simvastatin 10 mg/kg/day with AA 75 mg/kg/day. Tumor was harvested after 10 days of dosing, then fixed half of a tumor in 4% buffered formaldehyde for IHC and the other half was stored −80°C for RT-PCR and Western Blots analysis.

SK-N-BE (2) cells = experiment: MTT cell viability assay, SK-N-BE (2); type: cell-based; conditions: Homo sapiens, SKNBE2, NB cell line, 72 h
Protocol: as §1

[2] = test system: Panc-1 cells from the primary tumors; set-up: method as in Supplement [9]; key: Positive: Simvastatin alone inhibited the progression of cancer; Negative: Simvastatin alone could not inhibit the progression of cancer; conditions: Pancreatic Ductal Adenocarcinoma, 20.0 mg/kg/day, i.p.; ref Supplement [9]; cited from earlier work
SNU-5 cells = test system: SNU-5 cells; set-up: method as in Supplement [6]; key: Positive: Simvastatin alone inhibited the progression of cancer; Negative: Simvastatin alone could not inhibit the progression of cancer; conditions: Gastric Cancer, 2.1 mg/kg/day, i.p.; ref Supplement [6]; cited from earlier work
10A cells = experiment: MTT cell viability assay, 10A; type: cell-based; conditions: Homo sapiens, normal cell line, 72 h
Protocol: as §2

[3] = test system: HCT116 p53 +/+ or p53 -/- cells; set-up: method as in Supplement [12]; key: Positive: Simvastatin alone inhibited the progression of cancer; Negative: Simvastatin alone could not inhibit the progression of cancer; conditions: Colorectal Cancer, 20.0 mg/kg/day, i.p.; ref Supplement [12]; cited from earlier work

Q: Which results are given for `CCC(C)(C)C(=O)O[C@H]1C[C@@H](C)C=C2C=C[C@H](C)[C@H](CC[C@@H]3C[C@@H](O)CC(=O)O3)[C@H]21` [Simvastatin]?
A: IC50 (N2a cells; N2a, NB cell line, MTT, 72 h): 6.07 µM; inhibition at 1.5 µM (N2a cells; N2a cells, 1.5 μM simvastatin, read-out: inhibition rate): ~10%; Results (simvastatin alone) (LAPC-4 cells): Negative; Results (simvastatin alone) (MDA-MB-231 cells; 5.0 mg/kg/day, i.v., ref Supplement [23]): Positive; Results (simvastatin alone) (MDA-MB-231 cells; 5.0 mg/kg/day, route unknown, ref Supplement [21]): Positive; Results (simvastatin alone) (MDA-MB-231 cells; 10.0 mg/kg/day, oral, ref Supplement [20]): Positive; Results (simvastatin alone) (MDA-MB-231 cells; 200.0 mg/kg/day, oral, ref Supplement [22]): Positive; IC50 (HUVEC cells): 14.6 µM; Results (simvastatin alone) (A498 cells): Positive; Results (simvastatin alone) (U87MG): Positive; Results (simvastatin alone) [1]: Positive; Results (simvastatin alone) (CAPAN-2 cells): Positive; Results (simvastatin alone) (GL-26 cells): Negative; Results (simvastatin alone) (KHOS or NP cells): Positive; Results (simvastatin alone) (Caki-1-staR cells): Negative; tumor growth (SH-SY5Y xenografts): tumor growth delay; IC50 (SK-N-BE (2) cells): 10.5 µM; Results (simvastatin alone) [2]: Positive; Results (simvastatin alone) (SNU-5 cells): Positive; IC50 (10A cells): 26.7 µM; Results (simvastatin alone) [3]: Positive
